Literature values as cited in patent publication US20190367426A1, “LIQUID UREASE INHIBITOR FORMULATIONS” (YARA INTERNATIONAL ASA, priority 2017, published 2019).

Test system: rat

SMILES | toxicity oral rat LD50
CCCCOCCOCCO [DEGMBE, Diethylene glycol monobutyl ether] | 5660 mg/kg
COCCOCCO [DEGMME, Diethylene glycol monomethyl ether] | 6450 mg/kg
